What all share (assay type): binding, human
Experiment [1] concerns the target MYCN G4 DNA. As to the kind of experiment: Surface plasmon resonance (SPR) with immobilized biotinylated MYCN G4 DNA. The following applies: for positive binding in SPR (SNR>3): single concentration 100 μM compound. The procedure:
Surface plasmon resonance (SPR) analysis. The SPR binding assays were performed with a BIAcore 3000 (GE Healthcare) instrument. A CM5 SPR biochip was loaded into the system and primed with running buffer (10 mM Tris, pH7.0, 100 mM KCl, 0.005% Tween 20, 5% DMSO) with a flow rate of 5 μL/min. Then both Flow Cell (Fc) 1 and 2 were activated by EDC/NHS (0.4 M/0.1 M) aqueous solution for 15 min, followed with an injection of streptavidin (SA) solution (0.2 mg/mL in 10 mM sodium acetate buffer, pH4.5) for 30 minutes. After the immobilization amount of SA reached 8,000-10,000 RU, the surface was deactivated by flowing 1 M Ethanolamine aqueous solution (pH 8.5) for 10 min and regenerated with 10 mM NaOH for 2 min to remove the unbound SA. In the meantime, biotinylated MYCN G4 DNA was prepared at 5 μM in the annealing buffer and heated up to 95° C. for 5 min and slowly cooled down. After annealing, a total of 150 μL solution was injected in the Fc 2 of SPR system for 30 min to immobilize DNA onto the chip surface. The small molecule solutions were tested once the baseline was stable.
To detect the binding signal as well as the binding affinity, a higher flowing rate (25 μL/min) was used in both Fc 1 (reference) and Fc 2 (DNA). Each of the compound solution was prepared at 20× designed the concentrations in DMSO, and then diluted into non-DMSO running buffer, resulting in a final concentration of 5% DMSO. Then, a total of 50 μL compound solution was injected in Fc 1-2 flow path for 120 s for association, followed with 200 s running of buffer for dissociation. An injection of 50 μL regeneration buffer (1 M KCl) could be performed between two samples if necessary. The final binding curve was obtained by reference subtraction. To determine the binding affinity (KD), a series of diluted compound solutions were injected and KD was calculated by BIAevaluation 4.0 software (GE Healthcare) using Langmuir 1:1 binding model.
In this example, SPR binding assays were performed to analyze binding activity of representative bivalent compounds of the present disclosure. The compounds of this example included a non-canonical binder component and a G4 stacker component. A BIAcore 3000 (GE Healthcare) instrument was used. A CM5 SPR biochip was used and primed with running buffer (10 mM Tris, pH7.0, 100 mM KCl, 0.005% Tween 20, 5% DMSO). To immobilize the compounds onto the chip surface, the flow rate was set as 5 μL/min. Then the carboxylated dextran on the chip surface was activated by EDC/NHS (0.4 M/0.1 M) aqueous solution for 15 min, followed with an injection of streptavidin (SA) solution (0.2 mg/mL in 10 mM sodium acetate buffer, pH 4.5) for 30 minutes. After the immobilization amount of SA, the surface was quenched by injecting 1 M ethanolamine (EA) aqueous solution (pH 8.5) for 10 min and regenerated with 10 mM NaOH for 2 min to remove the physical adsorption. Furthermore, biotinylated MYCN G4 DNA was prepared at 5 μM in the annealing buffer and heated up to 95° C. for 5 min followed with slowly cooling down to room temperature within 1 h. After annealing, a total of 150 μL solution was injected in the Fc 2 of SPR system for 30 min to immobilize DNA onto the chip surface. The compound solutions were then tested once the baseline was stable.
To detect the binding signal as well as the binding affinity, a higher flowing rate (25 μL/min) was used in both Fc 1 (blank) and Fc 2 (target). Each of the compound solutions was prepared at 20× designed the concentrations in DMSO, and then diluted into non-DMSO running buffer, resulting in a final concentration of 5% DMSO. Then, a total of 50 μL compound solution was injected in Fc 1-2 flow path for 120 s for association, followed with 200 s running of buffer for dissociation. An injection of 50 μL regeneration buffer (1 M KCl) could be performed between two samples if necessary. The final binding curve was obtained by referencing the blank channel (Fc 1). […]
(SPR reads the build-up and loss of mass on a sensor chip optically.)

The target in experiment [2] is MYCN G4 DNA (2-AP at A11). As to the kind of experiment: 2-Aminopurine (2-AP) fluorescence titration, A11-labeled MYCN G4. The note with it: 2-AP at A11 of MYCN G4. The procedure:
2-Aminopurine (2-AP) fluorescence titration. Fluorescence titrations based on 2-aminopurine labeling were performed using the protocol reported previously. Briefly, MYCN G4 oligonucleotide with a 2-AP substitution at either A11 or A18 position was annealed by heating the sample to 95° C. for 5 min and cooling down to RT slowly. The oligonucleotide with folded structure was diluted to 10 μM in Tris buffer (10 mM Tris, pH7.0, 100 mM KCl, 0.005% Tween 20) and prepared in a black 96-well plate (Costar) in triplicate as designed. Small molecules were diluted in DMSO to obtain a series of solutions with concentrations ranging from 0.1 to 5 mM, and then diluted by 20 times added into the plate (5% DMSO final concentration). The final concentration of 2-AP DNA was 1 μM in the well plate. To obtain the background fluorescence, small molecule solutions without DNA were also prepared in the same plate. After incubation for 30 min at RT, the plate was briefly centrifuged and scanned in Synergy Mx microplate reader (BioTek) with Ex 310 nm/Em 365 nm. Fluorescence signals were calculated by averaging the intensities in triplicate wells after subtracting the references. Finally, the binding signals were normalized and the KD value was determined by fitting the curve using a nonlinear sigmoidal dose-response model with a variable slope in GraphPad Prism 8.3.1 software.

A further experiment has as its target MYCN hairpin-G4 DNA. Description: FIA using compound fluorescence (Ex 340/Em 500 nm), titration with unlabeled MYCN G4 DNA. The note with it: for Kd: 100 nM compound titrated with folded unlabeled MYCN G4. The procedure: In this study, FIA was used for validating the bindings between certain bivalent and MYCN G4 oligos. To measure the binding affinity, a solution of each compound was prepared in triplicate in a 96 well-plate (Costar, black side clear bottom), resulting in a final concentration of 100 nM (5% final DMSO in the working solution). Unlabeled MYCN G4 DNA was folded based on the above-mentioned annealing method, then added into the well plate resulting in different concentrations by a seral dilution. The plate was incubated at room temperature for 30 min, followed by centrifuging at 500 rpm for 2 minutes. The fluorescence intensity was then quantitatively recorded by a Synergy Mx microplate reader (BioTek) at Ex 340 nm/Em 500 nm. The fluorescence intensities were then normalized, and the binding affinity was calculated by fitting the curve using one-site total model in GraphPad Prism 8.3.1 software.

The test system of experiment [3] is MYCN G4 DNA. Description: Fluorescence intensity assay (FIA) with 5′Cy5-labeled MYCN G4 DNA. The following applies: single concentration 100 μM compound, 5′Cy5-MYCN G4. The procedure: Fluorescence intensity assay. In this disclosure, fluorescence intensity assay (FIA) was used for both validation of hit binding at a single dose and binding affinity determination. For validating hit compounds from SMM screening, 100 μM solution of each compound was prepared in triplicate in a 96 well-plate (Costar, black side clear bottom), resulting in 5% DMSO concentration. 5′Cy5-labeled MYCN G4 DNA was annealed as described above, then added into the well plate resulting in a final concentration of 100 nM. The plate was incubated shaking for 30 min, followed by centrifuging at 500 rpm for 2 minutes. The fluorescence intensity was then measured on a Synergy Mx microplate reader (BioTek) at Ex 649 nm/Em 670 nm. TMPyP4/DMSO were used as positive and negative controls, respectively. In certain examples, compounds were considered binders when a change of >10% change in fluorescence intensity was observed compared to that of negative control (DMSO solution). For binding affinity measurement, small molecule solutions were prepared as serial dilutions in DMSO. Then a final test plate was prepared by adding 5 μL small molecule solutions and 10 μL annealed DNA samples into 85 μL buffer solutions, resulting in the final small molecule concentrations from 0 to 250 μM (5% final DMSO concentration). The fluorescence intensities were normalized, and the binding affinity was calculated by fitting the curve using one-site total model in GraphPad Prism 8.3.1 software. The fluorescence titration using 3′-labeled oligonucleotides was also performed the same way.

The mark [4] stands for this setting: MYCN G4, Langmuir 1:1 model, read-out: SPR KD.
[5] abbreviates: MYCN hairpin G4, SPR titration, read-out: KD by SPR.

Where two headings read alike, the source gives them in different places.

Broadly, the Kd is the equilibrium constant for the complex coming apart. `COc1ccc(-c2noc(-c3ccc(NCCN4CCCC4)nn3)n2)cc1` [MY-12]: on MYCN G4 DNA [1] (setting [4]), the Kd is above 100000 nM.
Consider `COc1ccc(-c2noc(-c3ccc(NCCCN(C)C)nn3)n2)cc1` [MY-11], for which the values for the Kd (at MYCN G4 DNA [1] (setting [4]); in experiment [2]) were 9200 ± 1900 nM and 1200 ± 200 nM, respectively.
With `COc1ccc(-c2noc(-c3ccc(NCCOCCOCCNc4c5ccc(Cl)cc5nc5ccc(OC)cc45)nn3)n2)cc1` [B38, 6-chloro-2-methoxy-N-(2-(2-(2-((6-(3-(4-methoxyphenyl)-1,2,4-oxadiazol-5-yl)pyridazin-3-yl)amino)ethoxy)ethoxy)ethyl)acridin-9-amine], the Kd at MYCN G4 DNA [1] (setting [5]) amounted to 87 ± 39 nM; at MYCN hairpin-G4 DNA, 69 ± 21 nM.
In the case of `COCCNc1ccc(-c2nc(-c3ccc(OC)cc3)no2)nn1` [MY-3], the Kd at MYCN G4 DNA [1] (setting [4]) stood at 5900 ± 2700 nM; in experiment [2], 1200 ± 600 nM.
Turning to `Cc1c(C(=O)O)sc2ncnc(NCCCN3CCN(c4ccccc4)CC3)c12` [Compound 9], in the experiment on MYCN G4 DNA [1], the “positive binding in SPR (SNR>3)” value is “hits”.
Consider `COc1ccc(-c2noc(-c3ccc(NCCOCCNc4c5ccc(Cl)cc5nc5ccc(OC)cc45)nn3)n2)cc1` [B35, 6-chloro-2-methoxy-N-(2-(2-((6-(3-(4-methoxyphenyl)-1,2,4-oxadiazol-5-yl)pyridazin-3-yl)amino)ethoxy)ethyl)acridin-9-amine], for which the Kd on MYCN G4 DNA [1] (setting [5]) was found to be 14 ± 6 nM; on MYCN hairpin-G4 DNA, 38 ± 5 nM. Besides, in the experiment on MYCN hairpin-G4 DNA (FIA and SPR, MYCN HP-G4), the “fold improvement of KD compared to B32” value was above 10 fold.
In the case of `Cc1ccc(Nc2cc(C)nc(N3CCN(C(=O)CCc4ccccc4)CC3)n2)cc1` [Compound 10], the “positive binding in FIA (>10% quenching)” value with MYCN G4 DNA [3] is “hits”.
Consider `O=C1C(=O)C(c2ccc3c(c2)CCCC3)C1NC1CCN(Cc2ccccc2)CC1` (centres unmarked) [Compound 3], for which the “positive binding in SPR (SNR>3)” value in the experiment with MYCN G4 DNA [1] is on record as “hits”.
Regarding `COc1ccc(-c2noc(-c3ccc(NCCN4CCN(C)CC4)nn3)n2)cc1` [MY-14], on MYCN G4 DNA [1] (setting [4]), the Kd is 3600 ± 1000 nM. In experiment [2], the “A11 2AP KD” value is “sub-micromolar binders” and the Kd stood at 900 ± 200 nM.
As to `COc1ccc(-c2noc(-c3ccc(NCCC(N)=O)nn3)n2)cc1` [MY-7], the figures for the Kd (at MYCN G4 DNA [1] (setting [4]); in experiment [2]) were 23500 ± 4700 nM and 13200 ± 4600 nM, respectively.
For `c1cc(CNCCCN2CCCCCC2)n(-c2nnc(C3CCCCCC3)s2)c1` [Compound 2], the “positive binding in FIA (>10% quenching)” value in the experiment on MYCN G4 DNA [3] is “hits”. Moreover, in the experiment on MYCN G4 DNA [1], the “positive binding in SPR (SNR>3)” value is recorded as “hits”.
`COc1ccc(-c2noc(-c3ccc(NCCN4CCOCC4)nn3)n2)cc1` [MY-13, 6-(3-(4-methoxyphenyl)-1,2,4-oxadiazol-5-yl)-N-(2-morpholinoethyl)pyridazin-3-amine]: the values for the Kd (on MYCN G4 DNA [1] (setting [4]); in experiment [2]) were 8200 ± 2400 nM and 3200 ± 700 nM, respectively.
Regarding `CCCNc1cc(N2CCCC(CCC(=O)N3CCN(c4ncccn4)CC3)C2)ncn1` (centres unmarked) [Compound 13], the “positive binding in SPR (SNR>3)” value with MYCN G4 DNA [1] is “hits”.
On to `CCOc1ccc(CNC(=O)c2cnc(N3CCSCC3)nc2N)cc1` [Compound 12], for which the “positive binding in FIA (>10% quenching)” value with MYCN G4 DNA [3] is listed as “hits”.
In the case of `COc1ccc(-c2noc(-c3ccc(NCCCN4CCN(C)CC4)nn3)n2)cc1` [MY-5, 6-(3-(4-methoxyphenyl)-1,2,4-oxadiazol-5-yl)-N-(3-(4-methylpiperazin-1-yl)propyl)pyridazin-3-amine], the Kd on MYCN G4 DNA [1] (setting [4]) worked out at 1400 ± 200 nM; in experiment [2], 1000 ± 100 nM.
On to `COc1ccc(-c2noc(-c3ccc(NCCCN4CCC(C)CC4)nn3)n2)cc1` [MY-10], for which, on MYCN G4 DNA [1] (setting [4]), the Kd came out at 2200 ± 600 nM. In experiment [2], the “A11 2AP KD” value is given as “sub-micromolar binders” and the Kd was 700 ± 200 nM.
For the molecule `COCC(=O)c1nc2ccccc2nc1NCc1cccnc1` [Compound 5], in the experiment on MYCN G4 DNA [3], the “positive binding in FIA (>10% quenching)” value is “hits”. Besides, the “positive binding in SPR (SNR>3)” value in the experiment with MYCN G4 DNA [1] is given as “hits”.
Consider `COc1ccc2c(c1)sc1nc(-c3ccc(OC)c(OC)c3)c(NC(C)(C)C)n12` [Compound 11], for which the “positive binding in FIA (>10% quenching)” value in the experiment with MYCN G4 DNA [3] is “hits”.
Same read-out and setting: next, `CC(C)COCC(O)CN1CCN(c2ccc(NC(=O)c3cccs3)cn2)CC1` (centres unmarked) [Compound 14]: “hits”.
Regarding `COc1ccc(-c2noc(-c3ccc(NCCN(C)C)nn3)n2)cc1` [MY-6], the Kd amounted to 4900 ± 2600 nM at MYCN G4 DNA [1] (setting [4]) and 1000 ± 200 nM in experiment [2].

The values above are taken from US20240287054A1, “COMPOUNDS THAT BIND NON-CANONICAL G-QUADRUPLEX STRUCTURES AND METHODS OF MAKING AND USING THE SAME” (The U.S.A., as Represented by the Secretary, Department of …, priority 2021, published 2024).
